Our source for the melting point values is a melting point compilation (Tetko et al.; mined from patent text by program, amines drawn as free bases though some values may be those of a salt).

Residues, ends and D or L forms follow the SMILES beside them. *: point of attachment. Propionyl = CCC(=O)*; NHPh = c1ccc(N*)cc1

Broadly, the melting point is the temperature, or range, at which the solid turns liquid. `Cc1cnc2c(NC(=O)c3c(Cl)cccc3Cl)cccc2c1OCC=Cc1ccccc1` had a melting point of 169 to 171 °C.

Take `CNc1nc(-c2cccc(NC(=O)c3cccc(OCc4ccccc4)c3)c2)c2cc(OC)c(OC)cc2n1`: the melting point fell in the range of 110 to 112 °C.

With `CCC(=O)N[C@@H](C)C(=O)N[C@@H](C)C(=O)Nc1ccccc1` (Propionyl-Ala-Ala-NHPh), the melting point lay in the range of 281 to 284 °C.

`CC(=O)C1(CCC(=O)OC(C)(C)C)CCCCC1=O` (stereo not drawn) returned a melting point of 47 to 53 °C.

The compound `OC1CSC(Oc2ccc(-c3ccc(F)nc3)nc2Cl)C(O)C1O` (stereo not drawn) came in with a melting point of 199 °C.

On to `CCOC(=O)c1cnn(-c2cccc(S(=O)(=O)N(C)C)n2)c1N`, for which the melting point is 197 to 198 °C.

`O=c1[nH]c2ccccc2c2c(CCN3CCN(Cc4ccccc4)CC3)n(-c3ccccc3)nc12` returned a melting point of 211 to 212 °C.

Compound `CC(C)(C)CC(=O)NC(Cc1ccc(OCc2ccccc2)cc1)C(=O)Nc1c(F)cc(F)cc1F` (stereo not drawn) showed a melting point of 150 to 157 °C.

Take `O=C1CCC(N2Cc3c(OCc4ccc5ccccc5n4)cccc3C2=O)C(=O)N1` (stereo not drawn): the melting point is 269 to 271 °C.

As to `CC(=O)Nc1cc(OCc2ccc3c(c2)OCO3)c(C(=O)CCCCCl)cc1Cl`, the melting point was 108 to 110 °C.

In turn, `CCCCNC(=O)Cc1ccc2c(c1)c(Cc1ccc(C(=O)O)cc1OC)cn2C` showed a melting point of 92 to 95 °C.

As for `COC(=O)CCC(=O)c1cc(NC(C)=O)ccc1OCC(O)CNC(C)(C)C` (stereo not drawn), the melting point was 127 to 128 °C.

Compound `O=C(O)C1CCC(Nc2nccc(-n3nnc4c(I)cccc43)n2)CC1` (stereo not drawn) returned a melting point of 252 to 254 °C.

Take `O=c1[nH]nc(-c2cc(Cl)ccc2O)n1-c1ccc(C(F)(F)F)cc1`: the melting point fell in the range of 236 to 238 °C.

Consider `Cc1cc(C=O)c(Cl)nc1C`, for which the melting point lay within 69 to 70 °C.

With `OCCC(c1ccccc1)c1cc(Br)ccc1OCc1ccccc1` (stereo not drawn), the melting point amounted to 70 °C.

Compound `Brc1cnc(SCc2ccccc2)nc1SCc1ccccc1` returned a melting point of 66 to 67 °C.

`CC(=O)Nc1ccc(C(C)=O)c(C)n1` came in with a melting point of 201 to 202 °C.

Turning to `COc1ccc(CC2CCC3NCC(CO)CC3C2)cc1` (stereo not drawn), the melting point is 160 to 162 °C.

`CNc1nc2ccccc2n1CCOS(C)(=O)=O` came in with a melting point of 48 to 50 °C.

`CCOC(=O)c1ccc2c(c1)sc1ccccc12` came in with a melting point of 74 to 78 °C.

As to `O=C(Nc1cc2c3c(c1)CCCC3CCC2)c1ccc(C(=O)O)nc1`, the melting point was 239 to 240 °C.

In the case of `Cc1ccc(S(=O)(=O)OCC2Cc3c(F)ccc(Br)c3O2)cc1` (stereo not drawn), the melting point fell in the range of 100 to 103 °C.

For `CCOc1cc2cc(CO)nc(-c3ccnc(-n4nc(-c5cc(OC)c(OC)c(OC)c5)c5sccc5c4=O)c3)c2cc1OCC`, the melting point lay in the range of 250 to 251 °C.

For `COc1ccccc1S(=O)(=O)N(C)c1cccc2cc(C3=NCC(CC(=O)N4CCC(O)CC4)S3)[nH]c12` (stereo not drawn), the melting point fell in the range of 166 to 167 °C.

`NC1(C(=O)O)C=CC(Br)=C(F)C1` (stereo not drawn) came in with a melting point of 180 °C.

In the case of `COC(=O)CCC/C=C\[C@@H]1C[C@@H](NS(=O)(=O)c2ccc(Cl)cc2)CN1S(=O)(=O)c1ccc(Cl)cc1`, the melting point lay within 95 to 96 °C.

Consider `CCNC(=O)CSc1nc(Cl)cc(Nc2cccc(C)c2C)n1`, for which the melting point lay within 191 to 192 °C.

For the compound `O=C(O)C=Cc1cccc(CCc2nc(-c3ccccc3)c(-c3ccccc3)o2)c1`, the melting point was in the range of 114 to 115 °C.

`NC(=O)c1nc(-c2ccc(=O)[nH]c2)c(-c2ccccc2)nc1N` came in with a melting point of 215 to 220 °C.

Consider `Cc1n[nH]c(Cn2ccnc2C)c1Oc1cc(Cl)cc(C#N)c1`, for which the melting point lay in the range of 212 to 214 °C.

For the compound `CN(C)c1ccc(C(=O)N2CCC(C(c3ccccc3)c3ccccc3)CC2)cc1`, the melting point lay within 177 to 179 °C.

On to `CCSC1CN2CCC1CC2` (stereo not drawn), for which the melting point fell in the range of 101 to 102 °C.

The compound `O=C(O)COc1cc2c(c(Cl)c1Cl)C(=O)C(Cl)(C1CCCCC1)C2` (stereo not drawn) showed a melting point of 142 to 145 °C.

For the compound `CN(c1ccc2c(c1)S(=O)(=O)C=C(c1c(O)c3cc(F)ccc3n(CCC3CC3)c1=O)N2)S(C)(=O)=O`, the melting point fell in the range of 208 to 212 °C.

In turn, `CN(C)S(=O)(=O)Cc1ccccc1S(N)(=O)=O` came in with a melting point of 145 to 150 °C.

`O=C(NCCc1ccccc1CCl)c1ccc([N+](=O)[O-])cc1` showed a melting point of 126 °C.

`CC(C)(C)OC(=O)N(CCCCC(=O)c1cc2c3c(c1)CCN3C(=O)CC2)CCc1ccccc1O`: the melting point fell in the range of 154 to 155 °C.

As to `O=C(O)Cc1cccc(Oc2ccccc2)c1O`, the melting point lay within 132 to 135 °C.

Compound `CN(C)C1CCc2oc3ccc(NC(=O)c4ccc(F)cc4)cc3c2C1` (stereo not drawn) yielded a melting point of 137 to 138 °C.

Turning to `FC(F)(F)c1cccc(CSc2nnc(-c3ccc4[nH]ncc4c3)o2)c1`, the melting point lay in the range of 159 to 160 °C.

Consider `CCCOc1ccccc1-c1nc2nc(NCCCS(C)=O)ncc2c(=O)[nH]1` (stereo not drawn), for which the melting point lay in the range of 188 to 189 °C.

The compound `CN1CN(C)C(=N[N+](=O)[O-])N(Cc2ccc(Cl)nc2)C1` displayed a melting point of 116 to 117 °C.

With `CCOC(=O)c1c(NC)n[nH]c1C`, the melting point lay in the range of 161 to 162 °C.

For the compound `Cc1cc(-c2nc3cc4c(cc3[nH]2)C(C)(C)CC(=O)N4)[nH]n1`, the melting point is 242 to 245 °C.

Take `Cc1c(C(=O)OC(C)(C)C)nn(-c2ccc(Cl)cc2Cl)c1-c1ccc(Cl)cc1`: the melting point came to 112 °C.

In turn, `CCC12CCC3C4CCCC=C4CCC3C1CCC2=O` (stereo not drawn) showed a melting point of 101 to 102 °C.

For the compound `CCOC(=O)Nc1nc(-c2ccccc2)c(-c2nc3ccccc3c(=O)n2-c2ccc(C)cc2)s1`, the melting point was more than 275 °C.

Consider `COc1cc(-c2nc3sccn3c2-c2ccnc(NC3CCN(S(=O)(=O)C4CC4)CC3)n2)ccc1F`, for which the melting point lay in the range of 146 to 148 °C.

`COc1ccc(COc2cccc(C(=O)O)c2OCc2ccc(OC)cc2)cc1` gave a melting point of 129 °C.

Regarding `Cc1c(SCCCN2CCN(Cc3ccc(Cl)s3)CC2)ccnc1CSc1nc2cc(F)ccc2[nH]1`, the melting point lay in the range of 116 to 119 °C.

Compound `Cc1c(C)n2c3c(cccc13)CCc1ccccc1-2` registered a melting point of 76 to 77 °C.

For `FC(F)(F)c1ccc(-c2cc(C(F)(F)F)n3ncc(-c4ccccn4)c3n2)cc1`, the melting point is 202 °C.

For the compound `COc1cc2c(c(OC)c1OC)C(=O)CC2`, the melting point is 114 to 115 °C.

In turn, `O=C(Cc1ccc(Cl)c(Cl)c1)N(O)[C@H](CN1CCCC1)c1ccccc1` had a melting point of 118 to 120 °C.

On to `CCCCC(CC(=O)Nc1cc(C(N)=O)ccc1C(C)(C)C)c1ccc(OCCCS(=O)(=O)CCC)cc1OC` (stereo not drawn), for which the melting point is 108 to 128 °C.

`CCCOc1nsc(N)c1C#N` gave a melting point of 122 to 125 °C.

The compound `CSc1ccc(-c2ccccc2)c([N+](=O)[O-])c1` displayed a melting point of 51 to 52 °C.

Compound `CCOC(=O)c1cc(O)c(C(=O)c2ccccc2)c([N+](=O)[O-])c1` yielded a melting point of 167 to 168 °C.

For the compound `CCCCS(=O)(=O)NC(=O)C[C@H]1O[C@H](c2cccc(OC)c2OC)c2cc(Cl)ccc2N(CC(C)(C)CO)C1=O`, the melting point is 123 to 125 °C.

`COC(=O)CNc1cccc2c1C(=O)N(C1CCC(=O)NC1=O)C2=O` (stereo not drawn) came in with a melting point of 210 to 212 °C.

Consider `COC(=O)c1ccc2nc(SCCN3CCN(CC(=O)Nc4c(C(C)C)cccc4C(C)C)CC3)oc2c1C(=O)OC`, for which the melting point is 186 to 187 °C.

Regarding `CC(=O)NNC(=O)NC1c2ccccc2Oc2ccccc21`, the melting point lay in the range of 226 to 228 °C.

Regarding `COc1ccc(NC(=O)C2CCCCn3c2nc(-c2ccncn2)cc3=O)c(OC)n1` (racemic), the melting point was in the range of 231 to 233 °C.

Compound `CCOP(=O)(OCC)C(C)(C)NC(=O)c1cccc(NC(=O)c2cccc([N+](=O)[O-])c2)c1` showed a melting point of 120 to 121 °C.

Consider `Oc1ccc(Cn2cc[nH]c2=S)cc1F`, for which the melting point was in the range of 161 to 165 °C.

For the compound `CC(=O)NNC(=S)Nc1cc(C)ccc1Cl`, the melting point is 145 to 157 °C.

In turn, `CCOC(=O)[C@H](CCc1ccccc1)N[C@@H](C)C(=O)N1N=C(c2ccc(SC)cc2)S[C@H]1C(=O)O` had a melting point of 163 to 164 °C.

Take `CN(Cc1ccccc1Sc1nc2ccccc2[nH]1)c1ccccc1`: the melting point is 168 to 169 °C.

Regarding `O=S(=O)(NCCNCC=Cc1ccc(Cl)cc1)c1cccc2cnccc12`, the melting point lay within 120 to 123 °C.

The compound `COc1nc(C#N)c(C#N)[nH]1` returned a melting point of 137 to 138 °C.

Turning to `N#CC1=C(C2CCNCC2)Nc2n[nH]cc2C1c1cccc2nonc12` (stereo not drawn), the melting point was 216 °C.

`COc1ccc(OC(=O)c2c(Cl)cccc2Cl)cc1OC1CCCC1` yielded a melting point of 100 to 101 °C.

Regarding `CC(C)N(CCCC(=NNC(N)=S)c1ccccc1)C(=O)C1CCCCC1`, the melting point fell in the range of 112 to 114 °C.

Compound `CC1CC(=O)NN=C1c1cc2cc(O)c(O)cc2s1` (stereo not drawn) registered a melting point of more than 270 °C.

Regarding `CCOC(=O)c1cc2sc(N=CN(C)C)c(C#N)c2s1`, the melting point turned out to be 168 °C.

With `COC1CCCN(Nc2nc(Cl)nc3c2ncn3C2OC(CCl)C(O)C2O)C1` (stereo not drawn), the melting point fell in the range of 200 to 202 °C.

`COc1ccc(CN(C(=O)Nc2ccc(C(=O)O)cc2)c2ccc3c(c2)C(C)(C)CCC3(C)C)cc1` gave a melting point of 117 to 121 °C.

For the compound `COC(=O)c1ccc(-c2nc(-c3ccc(C(C)(C)C)cc3)cs2)cc1`, the melting point is 154 to 155 °C.

`N#Cc1ncn2c1[C@@H]1CCCN1C(=O)c1c(Br)cccc1-2` showed a melting point of 253 to 254 °C.

Take `CCSc1cn(C)cc(-c2ccccc2)c1=O`: the melting point fell in the range of 94 to 95 °C.

The compound `O=C1Nc2cccc(Cl)c2C12COc1cc3c(cc12)CCO3` (stereo not drawn) returned a melting point of more than 200 °C.

Turning to `Brc1ccc2nc(-c3ccccc3)cn2c1`, the melting point lay within 192 to 194 °C.

As for `COc1ccc(C)cc1NC(=O)Nc1ccc(N2CCN(C(=O)Nc3c(C)cccc3OC)CC2)cc1`, the melting point was 200 to 203 °C.

For `Fc1ccc2[nH]c3c4ccccc4nc-3c(Cl)c2c1`, the melting point was in the range of 208 to 210 °C.

For the compound `O=C(O)c1cc(-n2c3c(c(-c4ccccc4)c2-c2ccccc2)CCCC3)ccc1O`, the melting point lay in the range of 246 to 247 °C.

Consider `CN(C)CCC(C(=O)O)c1cccc2ccccc12` (stereo not drawn), for which the melting point lay within 130 to 135 °C.

In turn, `O=C(O)Cn1c(=O)[nH][nH]c1=O` gave a melting point of 220 to 223 °C.
